The values that follow are results of earlier work, collected in US20060105961A1 (Pharmacia Corporation, priority 2002, published 2006).

Each structure is given as a SMILES string.

This data set deals with tumor. To be noted: mice after radiotherapy.

As to `COc1ccc2c(c1)c(CC(=O)O)c(C)n2C(=O)c1ccc(Cl)cc1` [indomethacin], the tumor cure rate result is listed as “increases the tumor cure rate” and the tumor growth delay result is reported as “prolongs tumor growth delay”.
